Measured values reported in patent EP3009422A1, “Photo-switchable sulfonylureas and their uses” (Ludwig-Maximilians-Universität München, priority 2014, dated 2016).

What was measured:
[1] = tested on: mouse islets; test: Calcium imaging (fMCI) of beta cell activity in intact mouse islets; type: cell-based; details: for EC50: mouse islets, concentration-response, read-out: EC50 for cytosolic Ca^2+ rises; for effect of high doses on the effects of JB253 on cytosolic Ca^2+: JB253-treated mouse islets, 405 nm, n = 4-6 recordings
Experimental: Male and female CD1 and C57BL6 mice (8-20 weeks) were maintained in a specific pathogen-free facility under a 12h light-dark cycle with ad libitum access to water and food. Animals were euthanized using a schedule-1 method and pancreatic islets isolated by collagenase digestion. All procedures were regulated by the Home Office according to the Animals (Scientific Procedures) Act 1986 of the United Kingdom (PPL 70/7349), and study approval granted by the Animal Welfare and Ethical Review Body (AWERB) of Imperial College. No randomization was used for animal experimentation, since mice were only used as tissue donors.
(§1) Islets were loaded for 30-45 min in fluo2-AM (10 µM) or for 2-5 min with X-Rhod 1 (5 µM) diluted with a mixture of DMSO (0.01%, wt/vol) and pluronic acid (0.001%, wt/vol; all Invitrogen) in a bicarbonate buffer containing in mM: 120 NaCl, 4.8 KCl, 1.25 NaH2PO4, 24 NaHCO3, 2.5 CaCl2, 1.2 MgCl2 and 5 D-glucose. fMCI was performed using a Zeiss Axiovert M200 fitted with a Nipkow spinning-disk head (Yokogawa CSU-10) and a 10x/0.3NA objective adjusted for chromatic aberration (EC Plan-Neofluar, Zeiss). Pulsed excitation (frequency = 0.5 Hz; exposure = 263 ms) was delivered at 491 nm and emitted signals recorded at 500-550 nm with a back-illuminated 16-bit EM-CCD camera (ImageEM 9100-13; Hamamatsu). During recording, islets were maintained at 35-36 °C in the presence of 50 µM JB253 using a custom-manufactured perfusion and heating system (Digital Pixel). Drugs were introduced through the perfusion system at the indicated time points and concentrations. Violet light was delivered by a 405 ± 5 nm laser coupled to the side port of the microscope and configured to fill the back of the objective with light using an Optospot (Cairn Research). Blue light was delivered using 440 ± 5 nm and 491 ± 5 nm diode lasers controlled by a laser merge module (Spectral Applied Research) to allow simultaneous exposure and acquisition. For single islet targeting, a 473 ± 5 nm laser was coupled to a custom-manufactured dichroic array (Cairn Research), allowing user-directed steering of a collimated laser spot across the field of view. Signals were normalized using F/Fmin where F is fluorescence at a given timepoint and Fmin is minimum fluorescence.
(§2) Data distribution was determined using the D'Agostino omnibus test. Non-multifactorial pairwise comparisons were made using either the Student's t-test. Interactions between multiple treatments were assessed using one-way ANOVA followed by pairwise comparisons using Bonferroni's post-hoc test. Effect sizes in islets/cells are usually sufficiently large that multiple animals/independent replication is a more important determinant of power in studies requiring statistical comparison. Non-linear regression was used to calculate the EC50 of normalized and log-transformed concentration-response curves. For [3H]-glibenclamide displacement assays, data points were fitted to the Hill equation before calculation of the halfmax value. In all cases, analysis was performed using Graphpad Prism (Graphpad Software) and IgorPro, and experimental numbers reported as independent biological replicates. No animals or data were excluded from the analysis and results were considered significant at P<0.05.

[2] = molecular target: T1, SUR1 (Rattus norvegicus, UniProt Q09429); test: [3H]-glibenclamide displacement radioassay in SUR1-expressing HEK293t cells; type: binding; details: displacement of [3H]-glibenclamide, SUR1-expressing HEK293t cells, n = 3
T1 construct: expressed in transfected cells; host or cells: HEK293t
Experimental: SUR1-expressing HEK293t cells were harvested and washed twice in assaying buffer containing in mM: 119 NaCl, 4.7 KCl, […], 1.2 KH2PO4, 1.2 MgSO4, 5 NaHCO3, and 20 HEPES, pH 7.4. In a 96-well plate, ∼200,000 cells/well were incubated for 50 min with [3H]-glibenclamide (PerkinElmer) and different concentrations of glimepiride (Sigma-Aldrich) or JB253. Incubation was terminated by rapid filtration through Whatman GF/C filters by means of a Brandel MWXR-96 TI harvester and filters were washed 3 times with ice-cold assay buffer. Radioactivity was counted 6 h after cell and filter lysis in 200 µL Rotiszint EcoPlus (Roth) using a Packard microbeta scintillation counter (PerkinElmer).
as §2

[3] = tested on: human islets; test: Calcium imaging in isolated human islets of Langerhans; type: cell-based; details: JB253-treated human islets, 440 nm and 491 nm
Experimental: Human islets were isolated from deceased heart-beating donors (n = 3) at transplantation facilities in Pisa and Edmonton with the relevant national and local ethical permissions, including consent from next of kin where required, and cultured in RPMI supplemented with 5.5 mM D-glucose, 10% foetal calf serum (FCS), 100 U penicillin, 100 µg streptomycin and 0.25/µl fungizone (37 °C, 5% CO2). All studies involving human tissue were approved by the National Research Ethics Committee (NRES) London (Fulham), REC # 07/H0711/114.
as §1, with “For single islet targeting, a 473 ± 5 nm laser was coupled to a custom-manufactured dichroic array (Cairn Research), allowing user-directed steering of a collimated laser spot across the field of view.” left out

[4] = tested on: isolated murine islets; test: Insulin secretion from isolated islets (static incubation, radioimmunoassay); type: cell-based, mouse; details: diazoxide 250 µM, JB253 50 µM, illumination
Experimental: Insulin secretion was measured from 6 islets per well, incubated at 37 °C for 30 min in 0.5 ml of Krebs-HEPES-bicarbonate (KHB) solution (containing in mM: 130 NaCl, 3.6 KCl, 1.5 CaCl2, 0.5 MgSO4, 0.5 NaH2PO4, 2 NaHCO3, 10 HEPES, and 0.1 % (wt/vol) BSA, pH 7.4) containing the indicated glucose concentration and tolbutamide (100 µM), glimeperide (50 µM), diazoxide (250 µM) and JB253 (50 µM). Illumination (λ = 405 ± 20 nm and 485 ± 6 nm) was performed using a Fluostar Optima microplate reader (BMG Labtech) set to deliver 30 s of light every 2 min to the designated wells. Insulin concentrations were determined in duplicate using specific radioimmunoassay (EMD Millipore).

[5] = tested on: Epac2A; test: Epac2-camps FRET imaging in HEK293t cells; type: cell-based; details: HEK293t cells expressing full length Epac2-camps; JB253 as cis-JB253 (excitation 440 nm)
Experimental: For EPAC2 imaging, HEK293t were transfected with the full length construct for […] containing the cAMP and sulfonylurea binding domains (obtained from Prof. […] Excitation was delivered at 440 nm and emitted signals captured using […] filters. FRET was calculated as the ratio of Cerulean (CFP):Venus (YFP) fluorescence. Signals were normalized using R/R0 where R is the ratio at a given timepoint and R0 is the minimum ratio.

T1 sequence (Q09429 whole entry): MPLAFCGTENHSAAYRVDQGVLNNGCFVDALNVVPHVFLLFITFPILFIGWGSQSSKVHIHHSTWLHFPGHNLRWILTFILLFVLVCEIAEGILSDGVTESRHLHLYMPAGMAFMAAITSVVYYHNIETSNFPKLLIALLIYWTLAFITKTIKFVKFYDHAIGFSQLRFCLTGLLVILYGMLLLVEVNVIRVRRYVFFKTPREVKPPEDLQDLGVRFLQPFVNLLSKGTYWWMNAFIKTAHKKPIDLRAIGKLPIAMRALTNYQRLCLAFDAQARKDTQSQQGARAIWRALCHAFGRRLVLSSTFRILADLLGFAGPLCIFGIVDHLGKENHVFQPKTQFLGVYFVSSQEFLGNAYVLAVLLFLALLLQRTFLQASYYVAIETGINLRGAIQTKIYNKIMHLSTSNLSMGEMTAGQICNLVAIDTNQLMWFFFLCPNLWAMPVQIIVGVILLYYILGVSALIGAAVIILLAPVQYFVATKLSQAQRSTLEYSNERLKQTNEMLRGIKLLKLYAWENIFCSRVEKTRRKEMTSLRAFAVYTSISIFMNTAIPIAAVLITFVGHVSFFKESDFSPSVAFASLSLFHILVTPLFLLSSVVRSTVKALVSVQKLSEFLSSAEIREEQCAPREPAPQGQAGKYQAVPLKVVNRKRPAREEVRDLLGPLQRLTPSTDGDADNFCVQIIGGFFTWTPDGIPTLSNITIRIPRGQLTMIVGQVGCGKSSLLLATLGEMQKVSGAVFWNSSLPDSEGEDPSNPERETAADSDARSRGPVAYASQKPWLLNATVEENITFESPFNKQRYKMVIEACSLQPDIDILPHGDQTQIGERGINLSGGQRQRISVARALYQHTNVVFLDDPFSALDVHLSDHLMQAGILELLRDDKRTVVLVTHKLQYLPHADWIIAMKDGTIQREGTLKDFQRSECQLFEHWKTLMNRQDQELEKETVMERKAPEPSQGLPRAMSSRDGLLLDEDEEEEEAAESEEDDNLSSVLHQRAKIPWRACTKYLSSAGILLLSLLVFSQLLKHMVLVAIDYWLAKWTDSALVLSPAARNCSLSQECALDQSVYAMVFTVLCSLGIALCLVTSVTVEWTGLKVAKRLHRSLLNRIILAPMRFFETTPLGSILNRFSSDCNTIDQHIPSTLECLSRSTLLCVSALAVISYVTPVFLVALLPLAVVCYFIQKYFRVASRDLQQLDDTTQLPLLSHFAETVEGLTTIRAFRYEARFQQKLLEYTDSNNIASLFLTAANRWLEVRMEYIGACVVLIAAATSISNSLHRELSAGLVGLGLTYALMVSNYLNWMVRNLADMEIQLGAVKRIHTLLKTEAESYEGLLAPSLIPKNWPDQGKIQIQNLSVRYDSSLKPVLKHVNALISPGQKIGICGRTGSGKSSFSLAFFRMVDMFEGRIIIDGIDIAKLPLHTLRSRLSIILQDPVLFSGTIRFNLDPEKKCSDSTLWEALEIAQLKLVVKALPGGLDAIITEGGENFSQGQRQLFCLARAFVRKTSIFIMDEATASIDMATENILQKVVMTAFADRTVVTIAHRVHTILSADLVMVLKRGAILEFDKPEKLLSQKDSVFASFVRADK

| SMILES | EC50 [1] [µM] | IC50 ([2]; cis-state may relax thermally during washing) [µM] | effect on JB253 effects on intracellular Ca^2+ [3] | effect on light-induced insulin secretion of JB253-treated islets [4] | effect of high doses on the effects of JB253 on cytosolic Ca^2+ [1] | ΔR/R0 (decrease in FRET) [5] [AU] | IC50 [2] [µM] |
| --- | --- | --- | --- | --- | --- | --- | --- |
| CCN(CC)c1ccc(/N=N\c2ccc(S(=O)(=O)NC(=O)NC3CCCCC3)cc2)cc1 [cis-JB253] | 0.675 | 14.8 | – | – | – | – | – |
| CC1=NS(=O)(=O)c2cc(Cl)ccc2N1 [diazoxide, reference compound] | – | – | reversed | partially reversed | suppress | – | – |
| CCC1=C(C)CN(C(=O)NCCc2ccc(S(=O)(=O)NC(=O)N[C@H]3CC[C@H](C)CC3)cc2)C1=O [glimepiride, reference compound] | 0.399 | – | – | – | – | 0.052 | 0.0083 |
| CCCCNC(=O)NS(=O)(=O)c1ccc(C)cc1 [tolbutamide, reference compound] | – | – | mimicked | – | augment | – | – |
